Results from patent US20060024234A1, “Protein markers for pharmaceuticals and related toxicity” (LARGE SCALE PROTEOMICS CORPORATION, A Division of Large …, priority 2000, published 2006).

Columns and labels:
[1] = Weight gain of treated rats; assay type: in vivo, rat; conditions: high doses
rat liver proteins [2] = biological target: T1, rat liver proteins (Rattus norvegicus, UniProt P31044); test: Proteome analysis (2-D gel electrophoresis) of liver of rats fed antilipemic drugs at low and high dose for 7 days (Examples 1-3); assay type: in vivo; conditions: rat liver
T1 construct: The 2DGE protein pattern of rat liver illustrates over 1000 Coomassie Blue stained protein spots; from tissue; host or cells: liver (left apical lobe) of drug-fed F344 rats
T1 sequence (P31044 1-187): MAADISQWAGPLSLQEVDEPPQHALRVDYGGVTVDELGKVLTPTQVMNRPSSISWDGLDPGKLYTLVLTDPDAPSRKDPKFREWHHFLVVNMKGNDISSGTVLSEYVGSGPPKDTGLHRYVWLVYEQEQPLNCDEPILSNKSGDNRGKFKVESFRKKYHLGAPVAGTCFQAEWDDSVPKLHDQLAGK
Description: (§1) The animals were guillotined after CO2 asphyxiation on the day following the last treatment. Liver samples (150 mg of the left apical lobe) were removed and flash frozen in liquid nitrogen and kept at −80° C. until analysis.
(§2) The homogenates were centrifuged at 420,000×g at 22° C. for 30 min. […] The supernatant was removed, divided into four aliquots and stored at −80° C. until analysis.
(§3) An Angelique™ computer-controlled gradient-casting system (Large Scale Biology Corporation, Rockville, Md.) was used to prepare the second-dimension SDS slab gels. […] Second-dimensional slab gels were run overnight at 160 V in cooled DALT tanks (10° C.) with buffer circulation and were taken out when the tracking dye reached the bottom of the gel. Following SDS electrophoresis, the slab gels were fixed overnight in 1.5 liters/10 gels of 50% ethanol/3% phosphoric acid and then washed three times for 30 min in 1.5 liters/10 gels of cold DI water. They were transferred to 1.5 liters/10 gels of 34% methanol/17% ammonium sulfate/3% phosphoric acid for one hour, and after the addition of one gram powdered Coomassie Blue G-250 the gels were stained for three days to achieve equilibrium intensity.
(§4) Groupwise statistical comparisons were made to search for treatment-related protein abundance changes.
(§5) For these experiments, only pharmaceutical grade compounds were used with the trademark identifying the source. […] In each experiment, the low dose was equivalent to the daily human therapeutic dose.

rat liver proteins [3] = biological target: T2, rat liver proteins (Rattus norvegicus, UniProt P55260); test: as above; assay type: in vivo; conditions: rat liver
T2 construct: The 2DGE protein pattern of rat liver illustrates over 1000 Coomassie Blue stained protein spots; from tissue; host or cells: liver (left apical lobe) of drug-fed F344 rats
T2 sequence (P55260 1-319): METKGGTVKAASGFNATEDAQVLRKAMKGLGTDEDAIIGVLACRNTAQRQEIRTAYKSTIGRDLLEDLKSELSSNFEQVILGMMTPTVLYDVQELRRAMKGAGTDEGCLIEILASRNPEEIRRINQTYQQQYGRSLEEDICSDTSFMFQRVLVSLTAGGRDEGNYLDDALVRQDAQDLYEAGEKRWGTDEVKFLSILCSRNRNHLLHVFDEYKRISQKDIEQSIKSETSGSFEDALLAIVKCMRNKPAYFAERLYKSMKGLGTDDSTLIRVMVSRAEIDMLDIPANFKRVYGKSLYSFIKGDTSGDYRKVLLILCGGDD
Description: as §1, §2, §3, §4, §5

rat liver proteins [4] = test: as above; assay type: in vivo
Description: as §1, §2, §3, §4, §5

rat liver proteins [5] = biological target: T3, rat liver proteins (Rattus norvegicus, UniProt P05545); test: as above; assay type: in vivo; conditions: rat liver, high doses
T3 construct: The 2DGE protein pattern of rat liver illustrates over 1000 Coomassie Blue stained protein spots; from tissue; host or cells: liver (left apical lobe) of drug-fed F344 rats
T3 sequence (P05545 21-416): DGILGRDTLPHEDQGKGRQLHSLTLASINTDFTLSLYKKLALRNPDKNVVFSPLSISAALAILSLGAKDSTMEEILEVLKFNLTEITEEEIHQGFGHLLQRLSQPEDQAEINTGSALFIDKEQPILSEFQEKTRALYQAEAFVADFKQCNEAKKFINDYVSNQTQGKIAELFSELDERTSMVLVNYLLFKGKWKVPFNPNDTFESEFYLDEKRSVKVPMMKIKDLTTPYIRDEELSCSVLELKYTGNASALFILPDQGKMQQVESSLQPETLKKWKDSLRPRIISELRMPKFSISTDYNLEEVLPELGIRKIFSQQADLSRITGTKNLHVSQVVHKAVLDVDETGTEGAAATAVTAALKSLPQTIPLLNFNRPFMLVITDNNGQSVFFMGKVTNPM
Description: as §1, §2, §3, §4, §5

[6] = rat liver, 1500 ppm in feed for 7 days

CC[C@H](C)C(=O)O[C@H]1C[C@@H](C)C=C2C=C[C@H](C)[C@H](CC[C@@H]3C[C@@H](O)CC(=O)O3)[C@H]21 [Mevacor ®, lovastatin]
weight gain [1]: decrease | 23 kD morphine binding protein abundance (rat liver proteins [2]): increased | annexin IV abundance (rat liver proteins [3]): dose-dependent increase | protein abundance changes in liver at low dose (rat liver proteins [4]; 16 ppm in feed for 7 days): not of statistical significance | protein kinase C inhibitor abundance (rat liver proteins [4]; rat liver): increased | number of hepatic proteins with altered abundance, p<0.001 (rat liver proteins [4]; [6]): 32 | number of liver proteins with altered abundance, p<0.0001 (rat liver proteins [4]; [6]): 8 | number of liver proteins with altered abundance, p<0.005 (rat liver proteins [4]; [6]): 64 | number of lost liver proteins (rat liver proteins [4]; [6]): one | number of new liver proteins (rat liver proteins [4]; [6]): 1 | number of liver proteins with altered abundance (total) (rat liver proteins [4]; rat liver, two-tailed Student's t-test, 1500 ppm in feed for 7 days): 66 | serine protease inhibitor 2 (SPI-2) abundance (rat liver proteins [5]): decrease
